Experimental data: PubChem BioAssay AID1963873 (Molecular Pharmacology Branch, DTP, NCI, 2024)

Tested on: 276233-004-R-J1-PDC KRAS spheroids with HUVEC/MSC, viability
Assay: Anticancer human tumor 276233-004-R-J1-PDC patient-derived colon adenocarcinoma cell line growth inhibition [KRAS2]
Conditions: for IC50: curve of first compound; for viability, T/C: stronger effect = lower value
Source text: Multicellular complex tumor spheroid response to RAS pathway inhibitors in combination with a targeted agents in patient-derived cell lines with oncogenic KRAS variants from multiple cancer types
A high-throughput screen of multi-cell type tumor spheroids was designed to identify active combinations of targeted small molecules and KRAS pathway inhibitors. Complex spheroids include a stromal component modeled by human endothelial cells (HUVEC) and fibroblasts modeled by human mesenchymal stem cells (MSCs). The concentration ranges selected for each drug and investigational agent were based upon clinically achievable concentrations if the clinical Cmax of the agent was known.
Compounds. The drugs and investigational agents: BI-3406 (NSC825286), BAY-293 (NSC824723), batoprotafib (TNO155; NSC825523), sotorasib (AMG 510; NSC818433), MRTX1257 (NSC819558), elimusertib (BAY 1895344; NSC800525), molibresib (GSK525762; NSC774829), temuterkib (LY3214996; NSC803410), venetoclax (NSC766270), alisertib (NSC759677), olaparib (NSC753686), talazoparib (NSC767125), erdafitinib (NSC781556), ipatasertib (NSC767898), cabozantinib (NSC761068), nintedanib (NSC756659), abemaciclib (NSC768073), docetaxel (NSC628503), trametinib (NSC758246), and sapanisertib (NSC764658) were obtained from the National Cancer Institute (NCI) Developmental Therapeutics Program Chemical Repository. The FDA-approved anticancer drug set is available from the Developmental Therapeutics Program. […] The stock solutions were prepared in dimethyl sulfoxide (DMSO, Sigma-Aldrich, St. Louis, MO, cat. D2650) at 800-fold the tested concentration and stored at -70 degrees C prior to their use. All drugs and investigational agents were tested over a range starting from a high concentration at or near the clinical Cmax and decreasing in half-log increments. If the clinical Cmax for an agent had not been determined, the highest concentration tested was 10 microM.
Cell Culture. All cells were maintained in an incubator at 37 degrees C and 5% CO2 with 95% humidity. The PDC lines were cultured according to standard operating procedures established by the NCI PDMR (https://pdmr.cancer.gov/sops/default.htm). Briefly, all PDCs were thawed and cultured in Matrigel-coated flasks prepared with a working solution of 1X Ham's F-12 nutrient mix, without supplementation (Invitrogen, Waltham, MA, cat. 11765054), 100 U/mL penicillin-streptomycin (Invitrogen, cat. 15140122), and 2.5% Matrigel (Corning Inc., Corning, NY, cat. 354248) for the first three passages. All PDCs were cultured in complete DMEM/F-12 media containing advanced DMEM/F-12 (Invitrogen, cat. 12634028), 4.9% defined fetal bovine serum, heat inactivated (HyClone Laboratories Inc., Logan, UT, cat. SH30070.03HI), 389 ng/mL hydrocortisone (Sigma-Aldrich, cat. H4001), 9.7 ng/mL human EGF recombinant protein (Invitrogen, cat. PHG0313), 23.4 microg/mL adenine (Sigma-Aldrich, cat. A2786), 97.3 U/mL penicillin-streptomycin (Invitrogen, cat. 15140122), 1.9 mM L-glutamine (Invitrogen, cat. 25030081), and 9.7 microM Y-27632 dihydrochloride (Tocris Bioscience, Bristol, United Kingdom, cat. 1254). The PDCs were cultured in complete DMEM/F12 media without 9.7 microM Y-27632 dihydrochloride for at least two passages prior to the screen. The established cell line HOP-62 was cultured in RPMI 1640 medium, HEPES (Invitrogen, cat. 22400105) with 10% defined fetal bovine serum (HyClone Laboratories Inc., cat. SH30070.03) and 2 mM L-glutamine (Invitrogen, cat. 25030081). The pooled donor HUVEC were cultured in endothelial cell growth medium 2 (PromoCell, Heidelberg, Germany, cat. C-22011) and the hMSC were cultured in mesenchymal stem cell growth medium 2 (PromoCell, cat. C-28009). For all experiments, HUVEC and hMSC were used at passages </=5, while the malignant cell lines were used at passages </=15. […]

[1] = second compound 0.1 µM, first compound 0.01 µM
[2] = second compound 0.1 µM, first compound 0.0316 µM
[3] = second compound 0.1 µM, first compound 0.1 µM
[4] = second compound 0.1 µM, first compound 0.316 µM
[5] = second compound 0.1 µM, first compound 1 µM
[6] = second compound 0.1 µM, first compound 3.16 µM
[7] = second compound 0.316 µM, first compound 0.01 µM
[8] = second compound 0.316 µM, first compound 0.0316 µM
[9] = second compound 0.316 µM, first compound 0.1 µM
[10] = second compound 0.316 µM, first compound 0.316 µM
[11] = second compound 0.316 µM, first compound 1 µM
[12] = second compound 0.316 µM, first compound 3.16 µM
[13] = second compound 1 µM, first compound 0.01 µM
[14] = second compound 1 µM, first compound 0.0316 µM
[15] = second compound 1 µM, first compound 0.1 µM
[16] = second compound 1 µM, first compound 0.316 µM
[17] = second compound 1 µM, first compound 1 µM
[18] = second compound 1 µM, first compound 3.16 µM
[19] = second compound 3.16 µM, first compound 0.01 µM
[20] = second compound 3.16 µM, first compound 0.0316 µM
[21] = second compound 3.16 µM, first compound 0.1 µM
[22] = second compound 3.16 µM, first compound 0.316 µM
[23] = second compound 3.16 µM, first compound 1 µM
[24] = second compound 3.16 µM, first compound 3.16 µM
[25] = second compound 10 µM, first compound 0.01 µM
[26] = second compound 10 µM, first compound 0.0316 µM
[27] = second compound 10 µM, first compound 0.1 µM
[28] = second compound 10 µM, first compound 0.316 µM
[29] = second compound 10 µM, first compound 1 µM
[30] = second compound 10 µM, first compound 3.16 µM
[31] = second compound 0.1 µM, first compound 10 µM
[32] = second compound 0.316 µM, first compound 10 µM
[33] = second compound 1 µM, first compound 10 µM
[34] = second compound 3.16 µM, first compound 10 µM
[35] = second compound 10 µM, first compound 10 µM
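Also: cells exposed to agents for seven days before viability read.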
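For viability, T/C in this document: 100% = DMSO vehicle control wells and lower values mean fewer viable cells.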

Row | Structure (SMILES) | IC50 (second compound 0.1 µM) | IC50 (second compound 0.316 µM) | IC50 (second compound 1 µM) | IC50 (second compound 3.16 µM) | IC50 (second compound 10 µM) | viability, T/C [2] | viability, T/C [3] | viability, T/C [4] | viability, T/C [5] | viability, T/C [6] | viability, T/C [8] | viability, T/C [9] | viability, T/C [10] | viability, T/C [11] | viability, T/C [14] | viability, T/C [15] | viability, T/C [20] | viability, T/C [21] | viability, T/C [26] | viability, T/C [27] | further results
1 | CC(=O)OC12COC1CC(O)C1(C)C(=O)C(O)C3=C(C)C(OC(=O)C(O)C(NC(=O)OC(C)(C)C)c4ccccc4)CC(O)(C(OC(=O)c4ccccc4)C21)C3(C)C (stereo not given) + C=CC(=O)N1CCN(c2nc(=O)n(-c3c(C)ccnc3C(C)C)c3nc(-c4c(O)cccc4F)c(F)cc23)C(C)C1 | > 3.16 µM | > 3.16 µM | > 3.16 µM | > 3.16 µM | > 3.16 µM | 96.5% | 80.4% | 77.4% | 86.3% | 97.8% | 109% | 79.4% | 70.5% | 90.1% | 85.3% | 71.6% | 84.9% | 77.8% | 72.2% | 97.6% | viability, T/C [1]: 87%; viability, T/C [7]: 100%; viability, T/C [12]: 89.5%; viability, T/C [13]: 90.7%; viability, T/C [16]: 75%; viability, T/C [17]: 88%; viability, T/C [18]: 99.2%; viability, T/C [19]: 95.5%; viability, T/C [22]: 92.8%; viability, T/C [23]: 79.5%; viability, T/C [24]: 90.2%; viability, T/C [25]: 79.2%; viability, T/C [28]: 64.2%; viability, T/C [29]: 103%; viability, T/C [30]: 129%
2 | CN(C)C/C=C/C(=O)Nc1cc2c(Nc3ccc(F)c(Cl)c3)ncnc2cc1O[C@H]1CCOC1 + C=CC(=O)N1CCN(c2nc(=O)n(-c3c(C)ccnc3C(C)C)c3nc(-c4c(O)cccc4F)c(F)cc23)C(C)C1 | > 0.1 µM | > 0.1 µM | > 0.1 µM | > 0.1 µM | > 0.1 µM | 75.8% | 85.3% | – | – | – | 88% | 87% | – | – | 84.6% | 95.6% | 78.6% | 69.7% | 69.1% | 84.9% | viability, T/C (second compound 0.1 µM, first compound 0.000316 µM): 93.5%; viability, T/C (second compound 0.1 µM, first compound 0.001 µM): 97.1%; viability, T/C (second compound 0.1 µM, first compound 0.00316 µM): 72%; viability, T/C [1]: 87.6%; viability, T/C (second compound 0.316 µM, first compound 0.000316 µM): 109%; viability, T/C (second compound 0.316 µM, first compound 0.001 µM): 80.8%; viability, T/C (second compound 0.316 µM, first compound 0.00316 µM): 83%; viability, T/C [7]: 67.6%; viability, T/C (second compound 1 µM, first compound 0.000316 µM): 103%; viability, T/C (second compound 1 µM, first compound 0.001 µM): 101%; viability, T/C (second compound 1 µM, first compound 0.00316 µM): 80.8%; viability, T/C [13]: 82.6%; viability, T/C (second compound 3.16 µM, first compound 0.000316 µM): 87.1%; viability, T/C (second compound 3.16 µM, first compound 0.001 µM): 77.8%; viability, T/C (second compound 3.16 µM, first compound 0.00316 µM): 85.9%; viability, T/C [19]: 69.9%; viability, T/C (second compound 10 µM, first compound 0.000316 µM): 66%; viability, T/C (second compound 10 µM, first compound 0.001 µM): 65.8%; viability, T/C (second compound 10 µM, first compound 0.00316 µM): 57.8%; viability, T/C [25]: 66.8%
3 | COC(=O)c1ccc2c(C(=Nc3ccc(N(C)C(=O)CN4CCN(C)CC4)cc3)c3ccccc3)c(O)[nH]c2c1 + C=CC(=O)N1CCN(c2nc(=O)n(-c3c(C)ccnc3C(C)C)c3nc(-c4c(O)cccc4F)c(F)cc23)C(C)C1 | > 10 µM | > 10 µM | > 10 µM | > 10 µM | 3.36 µM | 104% | 72.4% | 71.5% | 92.8% | 91.8% | 105% | 80.5% | 90% | 83% | 106% | 87.5% | 93.9% | 78.1% | 78.2% | 73.2% | viability, T/C [31]: 97.2%; viability, T/C [12]: 91.1%; viability, T/C [32]: 92.3%; viability, T/C [16]: 64.8%; viability, T/C [17]: 96.7%; viability, T/C [18]: 96%; viability, T/C [33]: 88.3%; viability, T/C [22]: 81.1%; viability, T/C [23]: 63.3%; viability, T/C [24]: 89.5%; viability, T/C [34]: 95.5%; viability, T/C [28]: 61.2%; viability, T/C [29]: 82.2%; viability, T/C [30]: 51.8%; viability, T/C [35]: 16.8%
4 | O=C(c1cc(Cc2n[nH]c(=O)c3ccccc23)ccc1F)N1CCN(C(=O)C2CC2)CC1 + C=CC(=O)N1CCN(c2nc(=O)n(-c3c(C)ccnc3C(C)C)c3nc(-c4c(O)cccc4F)c(F)cc23)C(C)C1 | > 10 µM | > 10 µM | > 10 µM | > 10 µM | > 10 µM | 83.6% | 96% | 78.6% | 110% | 82.6% | 103% | 103% | 108% | 99% | 121% | 105% | 86.4% | 98.1% | 84.1% | 83.5% | viability, T/C [31]: 71.8%; viability, T/C [12]: 105%; viability, T/C [32]: 87.9%; viability, T/C [16]: 98.7%; viability, T/C [17]: 82.9%; viability, T/C [18]: 98.9%; viability, T/C [33]: 99.4%; viability, T/C [22]: 82.5%; viability, T/C [23]: 103%; viability, T/C [24]: 85.2%; viability, T/C [34]: 89.8%; viability, T/C [28]: 83.2%; viability, T/C [29]: 73.5%; viability, T/C [30]: 78.2%; viability, T/C [35]: 77.8%
